# In US20170095497A1, “TRANSIENT INHIBITION OF ADENOSINE KINASE AS AN ANTI-EPILE[…]” (Legacy Emanuel Hospital & Health Center, priority 2015, published 2017):
# Experiments:
# [1] = system: DNA methyltransferase (DNMT); details: mice, one hour after administration
# Source text: FIGS. 3 and 4 show a pair of bar graphs reporting the level of DNMT activity measured one hour after administration to mice of vehicle alone or with the indicated inhibitor.
# [2] = system: kainic acid (KA) triggered epileptogenesis in mice; assay: EEG seizure recording six weeks after intrahippocampal kainic acid-triggered epileptogenesis, transient ITU treatment; type: in vivo, mouse
# Protocol: (§1) Kainic acid (KA) was administered intrahippocampally (IH) at day 0 to produce status epilepticus. […] At six weeks and nine weeks, the subjects were analyzed by EEG alone or EEG and histology, respectively.
# The number of subjects from which data were collected is indicated in parentheses above each condition.
# [3] = system: kainic acid (KA) triggered epileptogenesis in mice; assay: Histological analysis of hippocampal tissue sections at nine weeks after KA status epilepticus; type: in vivo, mouse
# Protocol: as §1
# Administration of saline only is a control (top row of images). […] The tissue sections shown in the first column of images were Nissl stained, and those in the second, third, and fourth columns were stained respectively with antibodies to glial fibrillary acidic protein (GFAP), ADK, and 5-methylcytosine (5mC).
# FIGS. 12-14 are a series of graphs plotting data from the histological analysis represented by FIG. 11. […] FIG. 13 plots the level of GFAP, and FIG. 14 the level of ADK.
# [4] = 1.6 mg/kg ip twice daily, day 3 to day 8 after KA, EEG at six weeks
# [5] = hippocampal sections, nine weeks after KA, transient ITU ip
smiles,measurement,setting,value
"Nc1ncnc2c1c(I)cn2[C@@H]1O[C@H](CO)[C@@H](O)[C@H]1O [ITU, 5-iodotubercidin]",inhibition of DNMT compared with AZA,[1]; ITU 3.1 mg/kg,as effective as AZA
same,DNMT inhibition compared with ADOX and IODO,[1],most effective
same,seizure frequency,[2]; [4],dramatically reduced
same,time spent in seizure,[2]; [4],dramatically reduced
same,frequency of seizures and time spent in seizures,"[2]; 3.1 mg/kg ip once daily, day 3 to day 8 after KA, EEG at six weeks",substantially ineffective
same,"frequency of seizures and time spent in seizures, partial repeat experiment","[2]; ITU twice daily, EEG at six weeks, repeat of FIGS. 6 and 7","confirm the long-term, anti-epileptogenic effect"
same,half-life,"[2]; mice, inferred from once-daily versus twice-daily efficacy",much less than one day
same,dentate granule layer dispersion produced by KA,"[3]; Nissl stained sections, nine weeks, compared to controls",significantly less
same,level of 5-methylcytosine,[3]; [5],reduced
same,level of ADK,[3]; [5],reduced
same,epilepsy-associated histopathology (Nissl),"[3]; nine weeks after KA, transient ITU ip",prevented later development of epilepsy-associated histopathology
